Data: patent publication US12152024B2, “Pesticidally active heterocyclic derivatives with sulphur and hydroxylamine substituents” (SYNGENTA PARTICIPATIONS AG, priority 2016, dated 2024)

Columns and labels:
Format in all cases: in vivo
[1] = system: Spodoptera littoralis (Egyptian Cotton Leaf Worm); assay: Activity against Spodoptera littoralis (Egyptian cotton leaf worm), cotton leaf discs sprayed; settings: for percent control (mortality, anti-feedant effect or growth inhibition) at 200 ppm: foliar, 72 h, application rate 200 ppm, L1 larvae, 3 days after infestation, read-out: control (mortality, anti-feeding effect or growth inhibition)
Procedure: Cotton leaf discs were placed onto agar in 24-well microtiter plates and sprayed with aqueous test solutions prepared from 10′000 ppm DMSO stock solutions. After drying the leaf discs were infested with five L1 larvae. The samples were assessed for mortality, anti-feeding effect, and growth inhibition in comparison to untreated samples 3 days after infestation. Control of Spodoptera littoralis by a test sample is given when at least one of the categories mortality, anti-feedant effect, and growth inhibition is higher than the untreated sample.

[2] = system: Euschistus heros (Neotropical Brown Stink Bug); assay: Activity against Euschistus heros (neotropical brown stink bug), soybean leaves sprayed; settings: 120 h, application rate 200 ppm, N2 nymphs, 5 days after infestation, read-out: effect in at least one of the two categories (mortality or growth inhibition)
Procedure: Soybean leaves on agar in 24-well microtiter plates were sprayed with aqueous test solutions prepared from 10′000 ppm DMSO stock solutions. After drying the leaves were infested with N2 nymphs. The samples were assessed for mortality and growth inhibition in comparison to untreated samples 5 days after infestation.

[3] = system: Diabrotica balteata (corn root worm); assay: Activity against Diabrotica balteata (corn root worm), maize sprouts sprayed; settings: for percent effect (mortality or growth inhibition) at 200 ppm: 96 h, application rate 200 ppm, L2 larvae, 4 days after infestation, read-out: effect in at least one of the two categories (mortality or growth inhibition)
Procedure: Maize sprouts placed onto an agar layer in 24-well microtiter plates were treated with aqueous test solutions prepared from 10′000 ppm DMSO stock solutions by spraying. After drying, the plates were infested with L2 larvae (6 to 10 per well). The samples were assessed for mortality and growth inhibition in comparison to untreated samples 4 days after infestation.

[4] = system: Myzus persicae (Green Peach Aphid); assay: Activity against Myzus persicae (green peach aphid): feeding/contact activity; settings: for mortality at 200 ppm: Myzus persicae, 144 h, application rate 200 ppm, feeding/contact, mixed ages, 6 days after infestation
Procedure: Sunflower leaf discs were placed onto agar in a 24-well microtiter plate and sprayed with aqueous test solutions prepared from 10′000 ppm DMSO stock solutions. After drying, the leaf discs were infested with an aphid population of mixed ages. The samples were assessed for mortality 6 days after infestation.

[5] = system: Plutella xylostella (Diamond Back Moth); assay: Activity against Plutella xylostella (diamond back moth), artificial diet; settings: for percent effect (mortality or growth inhibition) at 200 ppm: 120 h, application rate 200 ppm, L2 larvae, 5 days after infestation, read-out: effect in at least one of the two categories (mortality or growth inhibition)
Procedure: 24-well microtiter plates with artificial diet were treated with aqueous test solutions prepared from 10′000 ppm DMSO stock solutions by pipetting. After drying, the plates were infested with L2 larvae (10 to 15 per well). The samples were assessed for mortality and growth inhibition in comparison to untreated samples 5 days after infestation.

[6] = system: Myzus persicae (Green Peach Aphid); assay: Activity against Myzus persicae (green peach aphid): systemic activity; settings: for mortality at 24 ppm: Myzus persicae, 144 h, test rate 24 ppm, systemic, pea seedling roots in test solution, 6 days
Procedure: Roots of pea seedlings infested with an aphid population of mixed ages were placed directly into aqueous test solutions prepared from 10′000 DMSO stock solutions. The samples were assessed for mortality 6 days after placing seedlings into test solutions.

[7] = system: Bemisia tabaci (Cotton White Fly); assay: Activity against Bemisia tabaci (cotton white fly); settings: 144 h, application rate 200 ppm, adult white flies, 6 days after incubation
Procedure: Cotton leaf discs were placed on agar in 24-well microtiter plates and sprayed with aqueous test solutions prepared from 10′000 ppm DMSO stock solutions. After drying the leaf discs were infested with adult white flies. The samples were checked for mortality 6 days after incubation.

SMILES | percent control (mortality, anti-feedant effect or growth inhibition) at 200 ppm [1] | percent effect (mortality or growth inhibition) at 200 ppm [2] | percent effect (mortality or growth inhibition) at 200 ppm [3] | mortality at 200 ppm [4] | percent effect (mortality or growth inhibition) at 200 ppm [5] | mortality at 24 ppm [6] | mortality at 200 ppm [7] | Mortality (%) ([1]; concentration 12.5 ppm) | Mortality (%) ([3]; concentration 50 ppm) | Mortality (%) ([6]; Myzus persicae (systemic), concentration 1.5 ppm) | Mortality (%) ([4]; Myzus persicae (feeding/contact), concentration 50 ppm) | Mortality (%) ([5]; concentration 12.5 ppm)
CCSc1cc(Br)cnc1-c1nc2cc(C(F)(F)F)n(OC)c(=O)c2n1C [Compound A19, 2-(5-bromo-3-ethylsulfanyl-2-pyridyl)-5-methoxy-3-methyl-6-(trifluoromethyl)imidazo[4,5-c]pyridin-4-one] | ≥ 80% | ≥ 80% | ≥ 80% | ≥ 80% | ≥ 80% |  |  |  |  |  |  | 
CCS(=O)(=O)c1ccc(-n2ccnn2)nc1-c1nc2cc(C(F)(F)F)n(OC)c(=O)c2n1C [Compound A4, 2-[3-ethylsulfonyl-6-(triazol-1-yl)-2-pyridyl]-5-methoxy-3-methyl-6-(trifluoromethyl)imidazo[4,5-c]pyridin-4-one] | ≥ 80% | ≥ 80% | ≥ 80% | ≥ 80% | ≥ 80% | ≥ 80% | ≥ 80% |  |  |  |  | 
CCS(=O)(=O)c1ccccc1-c1nc2cc(C(F)(F)F)n(OC)c(=O)c2n1C [Compound A7, 2-(2-ethylsulfonylphenyl)-5-methoxy-3-methyl-6-(trifluoromethyl)imidazo[4,5-c]pyridin-4-one] | ≥ 80% | ≥ 80% | ≥ 80% | ≥ 80% | ≥ 80% | ≥ 80% |  |  |  |  |  | 
CCS(=O)(=O)c1cc(Br)cnc1-c1nc2cc(C(F)(F)F)n(OC)c(=O)c2n1C [Compound A17, 2-(5-bromo-3-ethylsulfonyl-2-pyridyl)-5-methoxy-3-methyl-6-(trifluoromethyl)imidazo[4,5-c]pyridin-4-one] | ≥ 80% | ≥ 80% | ≥ 80% | ≥ 80% | ≥ 80% | ≥ 80% | ≥ 80% |  |  |  |  | 
CCS(=O)(=O)c1cc(Cl)c(N)nc1-c1nc2cc(C(F)(F)F)n(OC)c(=O)c2n1C [Compound A14, 2-(6-amino-5-chloro-3-ethylsulfonyl-2-pyridyl)-5-methoxy-3-methyl-6-(trifluoromethyl)imidazo[4,5-c]pyridin-4-one] | ≥ 80% | ≥ 80% | ≥ 80% | ≥ 80% | ≥ 80% | ≥ 80% | ≥ 80% |  |  |  |  | 
CCS(=O)(=O)c1cccnc1-c1nc2cc(C(F)(F)F)n(OC)c(=O)c2n1C [drawing 144, reference compound] |  |  |  |  |  |  |  | 0% | 0% | 0% | 50% | 0%
CCS(=O)(=O)c1cc(C(C)(C)C#N)ccc1-c1nc2cc(C(F)(F)F)n(OC)c(=O)c2n1C [Compound A15, 2-[3-ethylsulfonyl-4-[5-methoxy-3-methyl-4-oxo-6-(trifluoromethyl)imidazo[4,5-c]pyridin-2-yl]phenyl]-2-methyl-propanenitrile] |  | ≥ 80% | ≥ 80% | ≥ 80% | ≥ 80% | ≥ 80% | ≥ 80% |  |  |  |  | 
CCSc1cc(C(C)(C)C#N)ccc1-c1nc2cc(C(F)(F)F)n(OC)c(=O)c2n1C [Compound A25, 2-[3-ethylsulfanyl-4-[5-methoxy-3-methyl-4-oxo-6-(trifluoromethyl)imidazo[4,5-c]pyridin-2-yl]phenyl]-2-methyl-propanenitrile] |  | ≥ 80% | ≥ 80% |  |  |  |  |  |  |  |  | 
CCSc1cc(C(C)(C)C#N)cnc1-c1nc2cc(C(F)(F)F)n(OC)c(=O)c2n1C [Compound A24, 2-[5-ethylsulfanyl-6-[5-methoxy-3-methyl-4-oxo-6-(trifluoromethyl)imidazo[4,5-c]pyridin-2-yl]-3-pyridyl]-2-methyl-propanenitrile] |  | ≥ 80% | ≥ 80% |  | ≥ 80% |  |  |  |  |  |  | 
CCS(=O)(=O)c1cc(C(F)(F)F)cnc1-c1nc2cc(C(F)(F)F)n(OC)c(=O)c2n1C [Compound A6, 2-[3-ethylsulfonyl-5-(trifluoromethyl)-2-pyridyl]-5-methoxy-3-methyl-6-(trifluoromethyl)imidazo[4,5-c]pyridin-4-one] | ≥ 80% | ≥ 80% | ≥ 80% | ≥ 80% | ≥ 80% | ≥ 80% |  |  |  |  |  | 
CCS(=O)(=O)c1cc(Br)c(N)nc1-c1nc2cc(C(F)(F)F)n(OC)c(=O)c2n1C [Compound A16, 2-(6-amino-5-bromo-3-ethylsulfonyl-2-pyridyl)-5-methoxy-3-methyl-6-(trifluoromethyl)imidazo[4,5-c]pyridin-4-one] | ≥ 80% | ≥ 80% | ≥ 80% | ≥ 80% | ≥ 80% |  |  |  |  |  |  | 
CCSc1cc(C2(C#N)CC2)ccc1-c1nc2cc(C(F)(F)F)n(OC)c(=O)c2n1C [Compound A23, 1-[3-ethylsulfanyl-4-[5-methoxy-3-methyl-4-oxo-6-(trifluoromethyl)imidazo[4,5-c]pyridin-2-yl]phenyl]cyclopropanecarbonitrile] | ≥ 80% | ≥ 80% | ≥ 80% |  | ≥ 80% |  |  |  |  |  |  | 
CCSc1cc(C(F)(F)F)cnc1-c1nc2cc(C(F)(F)F)n(OC)c(=O)c2n1C [Compound A21, 2-[3-ethylsulfanyl-5-(trifluoromethyl)-2-pyridyl]-5-methoxy-3-methyl-6-(trifluoromethyl)imidazo[4,5-c]pyridin-4-one] | ≥ 80% | ≥ 80% | ≥ 80% | ≥ 80% | ≥ 80% |  |  |  |  |  |  | 
CCS(=O)(=O)c1ccc(-n2nccn2)nc1-c1nc2cc(C(F)(F)F)n(OC)c(=O)c2n1C [Compound A5, 2-[3-ethylsulfonyl-6-(triazol-2-yl)-2-pyridyl]-5-methoxy-3-methyl-6-(trifluoromethyl)imidazo[4,5-c]pyridin-4-one] | ≥ 80% | ≥ 80% | ≥ 80% | ≥ 80% | ≥ 80% | ≥ 80% |  |  |  |  |  | 
CCSc1cccnc1-c1nc2cc(C(F)(F)F)n(OC)c(=O)c2n1C [Compound A1, 2-(3-ethylsulfanyl-2-pyridyl)-5-methoxy-3-methyl-6-(trifluoromethyl) imidazo[4,5-c]pyridin-4-one] | ≥ 80% |  | ≥ 80% | ≥ 80% | ≥ 80% |  |  |  |  |  |  | 
CCSc1ccccc1-c1nc2cc(C(F)(F)F)n(OC)c(=O)c2n1C [Compound A22, 2-(2-ethylsulfanylphenyl)-5-methoxy-3-methyl-6-(trifluoromethyl)imidazo[4,5-c]pyridin-4-one] | ≥ 80% | ≥ 80% | ≥ 80% | ≥ 80% | ≥ 80% | ≥ 80% |  |  |  |  |  | 
